Measurements: publication PMC6150407, “Synthesis and In Vitro Antiproliferative Activity of 11-Substituted Neocryptolepines with a Branched ω-Aminoalkylamino Chain” (Molecules : A Journal of Synthetic Chemistry and Natural …, 2017)
Where a name gives a salt, the structure may show the parent alone.

Legend:
[1] = system: Human lung cancer cell line (A-549); assay: Antiproliferative assay (sulforhodamine B, 72 h) against A549; type: cell-based; conditions: A549 cells, mean ± SD
Method: (§1) Anti-proliferative assays in vitro were performed in the same manner as described in the literature. The cell lines of human leukemia MV4-11, lung A549, and colon HCT 116 cancer were chosen as representing various tissue origins and BALB/3T3 normal murine fibroblasts to assess the cytotoxicity of tested compounds towards normal cells. The IC50 parameter (half-maximum inhibitory concentration) was calculated based on sulforhodamine B (HCT-116, A549, BALB/3T3) or MTT (MV4-11) assay results after 72 h of exposure. Each compound in a given concentration was tested in triplicate in each experiment, which was repeated three to five times.

[2] = system: human leukemia MV4-11 cell line; assay: Antiproliferative assay (MTT, 72 h) against human leukemia MV4-11 cell line; type: cell-based; conditions: MV4-11 cells, 72 h exposure, 50% growth inhibition, mean ± SD
Method: as §1

[3] = system: human colon adenocarcinoma cell line (HCT 116); assay: Antiproliferative assay (sulforhodamine B, 72 h) against HCT 116; type: cell-based; conditions: HCT 116 cells, mean ± SD
Method: as §1

[4] = system: normal murine embryonic fibroblast cell line (BALB/3T3); assay: Antiproliferative assay (sulforhodamine B, 72 h) against normal murine fibroblasts BALB/3T3; type: cell-based, mouse; conditions: BALB/3T3 normal murine fibroblasts, mean ± SD
Method: as §1

salmon sperm DNA = assay: DNA binding study by UV-Vis absorption spectroscopy
Method: The DNA binding studies of compound 2d were performed using UV-Vis absorption spectroscopy with salmon sperm DNA in a phosphate buffer of pH 7.0 at 20 °C. […] The maximum absorption shifted from 256 nm to 289 nm. This illustrated that the mode of 2d binding to DNA was intercalation. The binding constant of 2d to DNA was calculated as 4.12 × 10^5 L·mol^−1, according to a double-reciprocal equation.
Figure 3 (a) UV-Vis absorption spectra of compound 2d at 20 °C. C(2d) = 50 μmol/L, C(DNA) = 0.0, 0.025, 0.05, 0.075, 0.1, 0.125, 0.15, 0.175, 0.2, 0.225, 0.25 μmol/L for curves 1–11 in phosphate buffer solution (pH 7.0) (b) Plot of 1/ΔA vs. 1/[DNA] for 2d-DNA.
The commercially obtained reagents (TCI, Tokyo, Japan) were used directly without further purification. The ^1H-NMR and ^13C-NMR spectra were taken on Varian INOVA-600, Varian INOVA-400, Varian INOVA-300 (Palo Alto, CA, USA), or Bruker 400 spectrometers (Billerica, MA, USA), using CDCl3 or DMSO-d6 as a solvent and tetramethylsilane (TMS) as the internal standard. The NMR spectra of the compounds are in Supplementary Materials. […] The melting points were determined on a RFS-10 hot stage microscope (J-Science, Kyoto, Japan). The UV spectra were recorded with a U-2910 spectrophotometer (Hitachi, Tokyo, Japan) in a 1 cm path length quartz cuvette at an indicated wavelength, and the sample was dissolved in phosphate buffer with 2.5% DMSO.

[5] = system: human breast cancer MDA-MB-453 cell line; parameters: method as in doi:10.1007/s00044-016-1508-z; conditions: MDA-MB-453 breast cancer cell line; cited from earlier work
[6] = system: human (HL-60) leukaemia cell line; parameters: method as in PMID 11099695; conditions: cited from earlier work

| Compound | IC50 ([1]; Homo sapiens, A549, 72 h) [µM] | IC50 ([2]; Homo sapiens) [µM] | IC50 ([3]; Homo sapiens) [µM] | further results |
| --- | --- | --- | --- | --- |
| CC(N)CNc1c2c3ccccc3nc-2n(C)c2ccc(Cl)cc12 (centres unmarked) [Compound 2m, N-(2-Aminopropyl)-2-chloro-5-methyl-5H-indolo[2,3-b]quinolin-11-amine] | 1.27 ± 0.118 | 0.103 ± 0.014 | 1.2 ± 0.283 | IC50 ([4]; Mus musculus, BALB/3T3, 72 h): 1.02 ± 0.017 µM |
| N.N.[Cl][Pt][Cl] [Cisplatin, reference compound] | – | – | – | IC50 [1]: 9.87 ± 2.4 µM; IC50 [2]: 2.82 ± 0.45 µM; IC50 [3]: 8.5 ± 0.54 µM; IC50 [4]: 8.7 ± 0.097 µM |
| Cn1c2nc3ccccc3c-2c(NCC(O)CN)c2cc(Cl)ccc21 (centres unmarked) [Compound 2h, 1-Amino-3-(2-chloro-5-methyl-5H-indolo[2,3-b]quinolin-11-ylamino)propan-2-ol] | 0.197 ± 0.028 | 0.042 ± 0.014 | 0.138 ± 0.05 | – |
| Cn1c2nc3ccccc3c-2c(Cl)c2ccccc21 [Compound 1a] | – | 1.31 ± 0.262 | – | – |
| Cn1c2nc3ccccc3c-2c(NCC(O)CN)c2cc(Br)ccc21 (centres unmarked) [Compound 2k, 1-Amino-3-(2-bromo-5-methyl-5H-indolo[2,3-b]quinolin-11-ylamino)propan-2-ol] | 0.199 | 0.057 ± 0.015 | 0.117 ± 0.055 | IC50 [1]: 0.19 ± 0.027 µM |
| Cn1c2nc3ccccc3c-2c(NCC(C)(C)CNC(=O)Nc2ccccc2)c2ccccc21 [Compound 3a, 1-(2,2-Dimethyl-3-(5-methyl-5H-indolo[2,3-b]quinolin-11-ylamino)propyl)-3-phenylurea] | – | 0.549 ± 0.108 | – | – |
| Cc1ccc2c(c1)c(NCC(C)(C)CNC(=O)Nc1ccccc1)c1c3ccccc3nc-1n2C [Compound 3b, 1-(3-(2,5-Dimethyl-5H-indolo[2,3-b]quinolin-11-ylamino)-2,2-dimethylpropyl)-3-phenylurea] | – | 0.427 ± 0.092 | – | – |
| Cn1c2nc3ccccc3c-2c(NCC(C)(C)N)c2cc(Cl)ccc21 [Compound 2g, N-(2-Amino-2-methylpropyl)-2-chloro-5-methyl-5H-indolo[2,3-b]quinolin-11-amine] | – | 0.453 ± 0.209 | – | – |
| Cn1c2nc3ccccc3c-2c(NCC(C)(C)CN)c2cc(Br)ccc21 [Compound 2d, N-(3-Amino-2,2-dimethylpropyl)-2-bromo-5-methyl-5H-indolo[2,3-b]quinolin-11-amine] | – | 0.308 ± 0.102 | – | mode of binding to DNA (salmon sperm DNA; UV-Vis, red shift 256 nm to 289 nm and hypochromic effect, pH 7.0, 20 °C): intercalation; binding constant to DNA (salmon sperm DNA; salmon sperm DNA, phosphate buffer pH 7.0, 20 °C, double-reciprocal equation): 412000 L/mol |
| Cn1c2nc3ccccc3c-2cc2ccccc21 [neocryptolepine (II), neocryptolepine] | – | – | – | IC50 [5]: 7.48 ± 4.42 µM; IC50 [6]: 12.7 ± 1.3 µM |
| Cn1c2nc3ccccc3c-2c(NCC(C)(C)N)c2ccccc21 [Compound 2e, N-(2-Amino-2-methylpropyl)-5-methyl-5H-indolo[2,3-b]quinolin-11-amine] | – | 0.392 ± 0.188 | – | – |
| Cn1c2nc3ccccc3c-2c(NCC(C)(C)CNC(=O)Nc2ccccc2)c2cc(Cl)ccc21 [Compound 3c, 1-(3-(2-Chloro-5-methyl-5H-indolo[2,3-b]quinolin-11-ylamino)-2,2-dimethylpropyl)-3-phenylurea] | – | 0.79 ± 0.302 | – | – |
| Cn1c2nc3ccccc3c-2c(NCC(C)(C)NC(=O)Nc2ccccc2)c2ccccc21 [Compound 3d, 1-(2-Methyl-1-(5-methyl-5H-indolo[2,3-b]quinolin-11-ylamino)propan-2-yl)-3-phenylurea] | – | 0.464 ± 0.141 | – | – |
| Cn1c2nc3ccccc3c-2c(NCC(C)(C)CN)c2ccccc21 [Compound 2a, N-(3-Amino-2,2-dimethylpropyl)-5-methyl-5H-indolo[2,3-b]quinolin-11-amine] | 1.51 ± 0.198 | 0.15 ± 0.06 | 1.26 ± 0.361 | IC50 ([4]; Mus musculus, BALB/3T3, 72 h): 4.79 ± 2.02 µM |
| Cn1c2nc3ccccc3c-2c(NCC(C)(C)NC(=S)Nc2ccccc2)c2cc(Cl)ccc21 [Compound 4b, 1-(1-(2-Chloro-5-methyl-5H-indolo[2,3-b]quinolin-11-ylamino)-2-methylpropan-2-yl)-3-phenylthiourea] | – | 2.33 ± 1.01 | – | – |
| Cc1ccc2c(c1)c(NCC(C)(C)CN)c1c3ccccc3nc-1n2C [Compound 2b, N-(3-Amino-2,2-dimethylpropyl)-2,5-dimethyl-5H-indolo[2,3-b]quinolin-11-amine] | – | 0.288 ± 0.075 | – | – |
| Cc1ccc2c(c1)c(NCC(C)(C)N)c1c3ccccc3nc-1n2C [Compound 2f, N-(2-Amino-2-methylpropyl)-2,5-dimethyl-5H-indolo[2,3-b]quinolin-11-amine] | 1.79 ± 0.27 | 0.105 ± 0.027 | 2.37 ± 0.481 | IC50 ([4]; Mus musculus, BALB/3T3, 72 h): 10.6 ± 0.33 µM |
| COc1cccc2c1C(=O)c1c(O)c3c(c(O)c1C2=O)C[C@@](O)(C(=O)CO)C[C@@H]3O[C@H]1C[C@H](N)[C@H](O)[C@H](C)O1 [Doxorubicin HCl, reference compound] | 0.329 ± 0.097 | 0.006 ± 0.002 | 0.39 ± 0.098 | IC50 ([4]; Mus musculus, BALB/3T3, 72 h): 1.08 ± 0.033 µM |
| Cn1c2nc3ccccc3c-2c(NCC(C)(C)CNC(=S)Nc2ccccc2)c2ccccc21 [Compound 4a, 1-(2,2-Dimethyl-3-(5-methyl-5H-indolo[2,3-b]quinolin-11-ylamino)propyl)-3phenylthiourea] | – | 0.68 ± 0.215 | – | – |
| Cn1c2nc3ccccc3c-2c(NCC(C)(C)N)c2cc(Br)ccc21 [Compound 2n, N-(2-Amino-2-methylpropyl)-2-bromo-5-methyl-5H-indolo[2,3-b]quinolin-11-amine] | 0.988 ± 0.164 | 0.078 ± 0.02 | 0.842 ± 0.367 | IC50 ([4]; Mus musculus, BALB/3T3, 72 h): 0.939 ± 0.018 µM |
| Cn1c2nc3ccccc3c-2c(NCC(C)(C)CN)c2cc(Cl)ccc21 [Compound 2c, N-(3-Amino-2,2-dimethylpropyl)-2-chloro-5-methyl-5H-indolo[2,3-b]quinolin-11-amine] | 1.46 ± 0.168 | 0.119 ± 0.043 | 1.37 ± 0.351 | IC50 ([4]; Mus musculus, BALB/3T3, 72 h): 9.13 ± 0.844 µM |
